We go through 32 compounds from patent US7276519B2, “Thieno[3,2-b]pyridine-6-carbonitriles and thieno[2,3-b]pyridine-5-carbonitriles as protein kinase inhibitors” (Wyeth, priority 2002, dated 2007).

Where two headings read alike, the source gives them in different places.

Series [1] relates to Rat2 fibroblasts stably transformed with v-Src/Hu c-Src fusion gene. As to the kind of experiment: Anchorage independent Src-transformed fibroblast proliferation assay. Conditions: for IC50: suspension growth, MTS readout Day 5, read-out: Src cells IC50; for inhibition at 10 µM / inhibition at 100 µM: Rat2, Table 1; for inhibition at 10 µM: read-out: Src cells % inh at 10 μM; for inhibition at 100 µM: read-out: Src cells % inh at 100 μM. In kind it is cell-based, rat. On the procedure: Anchorage Independent Src-Transformed Fibroblast Proliferation Assay Rat2 fibroblasts stably transformed with a plasmid containing a CMV promotor controlled v-Src/Hu c-Src fusion gene in which the catalytic domain of human c-Src was inserted in place of the v-Src catalytic domain in the v-Src gene are used for the measurement of src dependent suspension growth. […] Multiple entries for a given compound indicate that it was tested multiple times.

Setting [2] is: Rattus norvegicus, Rat2, 120 h, Table 1.

What is called IC50 is the point on the concentration scale where inhibition reaches its midpoint. As a reminder, the melting point is the temperature of the solid-liquid transition.

`COc1cc(Nc2c(C#N)cnc3cc(C)sc23)c(Cl)cc1Cl` [Example 9, 7-[(2,4-Dichloro-5-methoxyphenyl)amino]-2-methylthieno[3,2-b]pyridine-6-carbonitrile] yielded a melting point of 213 to 214 °C. In addition, the IC50 in series [1] (setting [2]) is 20 µM. The compound `N#Cc1cnc2ccsc2c1NCc1ccc(Cl)cc1Cl` [Example 13, 7-[(2,4-Dichlorobenzyl)amino]thieno[3,2-b]pyridine-6-carbonitrile] showed a melting point of 215 to 216 °C. For the same compound, the inhibition at 10 µM in series [1] (Rattus norvegicus) came to 34%. As to `COc1cc(Nc2c(C#N)cnc3cc(I)sc23)c(Cl)cc1Cl` [Example 4, 7-[(2,4-Dichloro-5-methoxyphenyl)amino]-2-iodothieno[3,2-b]pyridine-6-carbonitrile], the melting point is 233 to 234 °C. For the same compound, the IC50 in series [1] (setting [2]) amounted to 3.1 µM. Take `COc1cc(Nc2c(C#N)cnc3sc(C)cc23)c(Cl)cc1Cl` [Example 8, 4-[(2,4-Dichloro-5-methoxyphenyl)amino]-2-methylthieno[2,3-b]pyridine-5-carbonitrile]: the melting point is 179 to 181 °C. Moreover, in series [1] (Rattus norvegicus), the inhibition at 10 µM amounted to 33%.

In the case of `N#Cc1cnc2cc(I)sc2c1Nc1ccc(Cl)cc1Cl` [Example 102, 7-[(2,4-dichlorophenyl)amino]-2-iodothieno[3,2-b]pyridine-6-carbonitrile], the melting point lay in the range of 230 to 233 °C. Take `COc1cc(Nc2c(C#N)cnc3cc(/C=C/C(=O)OC(C)(C)C)sc23)c(Cl)cc1Cl` [Example 50, tert-Butyl (2E)-3-{6-cyano-7-[(2,4-dichloro-5-methoxyphenyl)amino]thieno[3,2-b]pyridin-2-yl}prop-2-enoate]: the melting point was 224 °C (dec.). Besides, the IC50 in series [1] (setting [2]) was determined as 7.4 µM. Consider `COc1cc(Nc2c(C#N)cnc3cc(/C=C/C(=O)O)sc23)c(Cl)cc1Cl` [Example 53, (2E)-3-(6-Cyano-7-[(2,4-dichloro-5-methoxyphenyl)amino]thieno[3,2-b]pyridin-2-yl)prop-2-enoate], for which the “Src cells % inh at 100 μM” value in series [1] (Table 1, at 100 μM) is reported as 45%. `COc1cc(Nc2c(C#N)cnc3c(Br)csc23)c(Cl)cc1Cl` [Example 139, 3-Bromo-7-[(2,4-dichloro-5-methoxyphenyl)amino]thieno[3,2-b]pyridine-6-carbonitrile] gave a melting point of 265 to 266 °C. With `COc1ccc(C#Cc2cc3ncc(C#N)c(Nc4cc(OC)c(Cl)cc4Cl)c3s2)cc1` [Example 21, 7-[(2,4-Dichloro-5-methoxyphenyl)amino]-2-[(4-methoxyphenyl)ethynyl]thieno[3,2-b]pyridine-6-carbonitrile], the melting point lay within 249 to 250 °C. For the same compound, the half-inhibitory concentration (IC50) in series [1] (setting [2]) amounted to 32 µM. Turning to `COc1cc(Nc2c(C#N)cnc3cc(-c4ccc(C=O)cc4)sc23)c(Cl)cc1Cl` [Example 14, 7-[(2,4-Dichloro-5-methoxyphenyl)amino]-2-(4-formylphenyl)thieno[3,2-b]pyridine-6-carbonitrile], the melting point was in the range of 261 to 262 °C. Moreover, the IC50 in series [1] (setting [2]) is 0.66 µM.

`N#Cc1cnc2cc(-c3ccc(C=O)cc3)sc2c1Nc1ccc(Oc2ccccc2)cc1` [Example 43, 2-(4-Formylphenyl)-7-[(4-phenoxyphenyl)amino]thieno[3,2-b]pyridine-6-carbonitrile] showed a melting point of 230 to 232 °C. For the same compound, the inhibition at 100 µM in series [1] (Rattus norvegicus, at 100 μM) stood at 4%. Take `N#Cc1cnc2cc(-c3ccc(CN4CCOCC4)cc3)sc2c1Nc1ccc(Oc2ccccc2)cc1` [Example 45, 2-[4-(Morpholin-4-ylmethyl)phenyl]-7-[(4-phenoxyphenyl)amino]thieno[3,2-b]pyridine-6-carbonitrile]: the melting point was in the range of 254 to 256 °C. In addition, the inhibition at 100 µM in series [1] (Rattus norvegicus, at 100 μM) was 2%.

`COc1cc(Nc2c(C#N)cnc3cc(-c4cnc(C=O)n4C)sc23)c(Cl)cc1Cl` [Example 54, 7-[(2,4-Dichloro-5-methoxyphenyl)amino]-2-(2-formyl-1-methyl-1H-imidazol-5-yl)thieno[3,2-b]pyridine-6-carbonitrile] yielded a melting point of 225 to 227 °C. Besides, the IC50 in series [1] (setting [2]) worked out at 1.51 µM. Moreover, the IC50 in series [1] (Table 1) came out at 1.01 µM. Take `CCOc1cc(Nc2c(C#N)cnc3cc(I)sc23)c(Cl)cc1Cl` [Example 110, 7-[(2,4-dichloro-5-ethoxyphenyl)amino]-2-iodothieno[3,2-b]pyridine-6-carbonitrile]: the melting point fell in the range of 232 to 233 °C.

As for `N#Cc1cnc2ccsc2c1Sc1ccc(Cl)cc1Cl` [Example 12, 7-[(2,4-Dichlorophenyl)thio]thieno[3,2-b]pyridine-6-carbonitrile], the melting point was in the range of 126 to 128 °C. The inhibition at 10 µM in series [1] (Rattus norvegicus) came out at 23%. As to `COc1cc(Nc2c(C#N)cnc3cc(-c4coc(C=O)c4)sc23)c(Cl)cc1Cl` [Example 138, 7-[(2,4-dichloro-5-methoxyphenyl)amino]-2-(5-formyl-3-furyl)thieno[3,2-b]pyridine-6-carbonitrile], the melting point lay in the range of 223 to 224 °C. Regarding `N#Cc1cnc2cc(I)sc2c1Nc1ccc(Oc2ccccc2)cc1` [Example 42, 2-Iodo-7-[(4-phenoxyphenyl)amino]thieno[3,2-b]pyridine-6-carbonitrile], the melting point lay within 260 to 262 °C. Also, the inhibition at 100 µM in series [1] (Rattus norvegicus, at 100 μM) was found to be 5%.

The compound `N#Cc1cnc2cc(-c3ccc(CO)cc3)sc2c1Nc1ccc(Oc2ccccc2)cc1` [Example 46, 2-[4-(Hydroxymethyl)phenyl]-7-[(4-phenoxyphenyl)amino]thieno[3,2-b]pyridine-6-carbonitrile] came in with a melting point of 225 to 228 °C. In addition, in series [1] (Rattus norvegicus, at 100 μM), the inhibition at 100 µM turned out to be 26%.

In turn, `C#Cc1cc2ncc(C#N)c(Nc3cc(OC)c(Cl)cc3Cl)c2s1` [Example 33, 7-[(2,4-Dichloro-5-methoxyphenyl)amino]-2-ethynylthieno[3,2-b]pyridine-6-carbonitrile] gave a melting point of 198 to 200 °C. Besides, the IC50 in series [1] (setting [2]) came out at 0.88 µM. On the same counts, the results for `COc1cc(Nc2c(C#N)cnc3cc(-c4ccc(C(=O)O)cc4)sc23)c(Cl)cc1Cl` [Example 19, 4-{6-Cyano-7-[(2,4-dichloro-5-methoxyphenyl)amino]thieno[3,2-b]pyridine-2-yl]benzoic acid] are more than 300 °C and more than 10 µM. The compound `COc1cc(Nc2c(C#N)cnc3sc(I)cc23)c(Cl)cc1Cl` [Example 7, 4-[(2,4-Dichloro-5-methoxyphenyl)amino]-2-iodothieno[2,3-b]pyridine-5-carbonitrile] had a melting point of 231 to 233 °C. For the same compound, the inhibition at 10 µM in series [1] (Rattus norvegicus) turned out to be 31%.

In turn, `Cn1ccnc1Sc1ccc(Nc2c(C#N)cnc3cc(I)sc23)cc1Cl` [Example 82, 7-({3-chloro-4-[(1-methyl-1H-imidazol-2-yl)thio]phenyl}amino)-2-iodothieno[3,2-b]pyridine-6-carbonitrile] registered a melting point of 290 to 291 °C. As for `COc1cc(Nc2c(C#N)cnc3sc(-c4ccc(CN5CCOCC5)cc4)cc23)c(Cl)cc1Cl`, the melting point is 106 to 108 °C. Still for that read-out and setting: to `COc1cc(N(C(C)=O)c2c(C#N)cnc3ccsc23)c(Cl)cc1Cl` [Example 63, N-(6-Cyanothieno[3,2-b]pyridin-7-yl)-N-(2,4-dichloro-5-methoxyphenyl)acetamide] belongs 202 to 204 °C; to `COc1cc(Nc2c(C#N)cnc3cc(C#CCN4CCN(C)CC4)sc23)c(Cl)cc1Cl`, 172 to 173 °C; to `Cn1ccnc1Sc1ccc(Nc2c(C#N)cnc3cc(-c4ccc(C=O)cc4)sc23)cc1Cl` [Example 97, 7-({3-chloro-4-[(1-methyl-1H-imidazol-2-yl)thio]phenyl}amino)-2-(4-formylphenyl)thieno[3,2-b]pyridine-6-carbonitrile], 279 to 281 °C. The compound `COC(=O)CCCc1cc2c(Nc3cc(OC)c(OC)c(OC)c3)c(C#N)cnc2s1` [Example 29, 4-[5-Cyano-4-(3,4,5-trimethoxyphenylamino)-thieno[2,3-b]pyridin-2-yl]-butyric acid methyl ester] yielded a melting point of 101 to 103 °C. For the compound `N#Cc1cnc2cc(-c3ccc(C=O)cc3)sc2c1Nc1ccc(Cl)cc1Cl` [Example 115, 7-[(2,4-dichlorophenyl)amino]-2-(4-formylphenyl)thieno[3,2-b]pyridine-6-carbonitrile], the melting point lay in the range of 170 to 171 °C.

In the case of `COc1cc(Nc2c(C#N)cnc3sc(CCCCN4CCOCC4)cc23)cc(OC)c1OC` [Example 31, 2-[4-(4-Morpholinyl)butyl]-4-[(3,4,5-trimethoxyphenyl)amino]-thieno[2,3-b]pyridine-5-carbonitrile], the IC50 in series [1] (setting [2]) was found to be 35 µM. For `COc1cc(Nc2c(C#N)cnc3cc(-c4ccc(CN5CCN(C)CC5)cc4)sc23)c(Cl)cc1Cl` [Example 16, 7-[(2,4-Dichloro-5-methoxyphenyl)amino]-2-[4-(4-methylpiperazin-1-ylmethyl)phenyl]thieno[3,2-b]pyridine-6-carbonitrile], the melting point is 226 to 228 °C. `CN(C)c1ccc(-c2cc3ncc(C#N)c(Nc4ccc(Cl)cc4Cl)c3s2)cc1` [Example 126, 7-[(2,4-dichlorophenyl)amino]-2-[4-(dimethylamino)phenyl]thieno[3,2-b]pyridine-6-carbonitrile] returned a melting point of 239 to 241 °C.

Compound `COc1cc(Nc2c(C#N)cnc3cc(-c4ccsc4C=O)sc23)c(Cl)cc1Cl` [Example 78, 7-[(2,4-dichloro-5-methoxyphenyl)amino]-2-(2-formylthien-3-yl)thieno[3,2-b]pyridine-6-carbonitrile] came in with a melting point of 128 to 130 °C.
